Experimental data published in US20020137929A1, “1 - (3-heterocyclylphenyl) isothiourea, -isourea, -guanidine and -amidine herbicidal agents” (Intellectual Property Department, BASF Aktiengesellschaft, priority 1998, published 2002).

Key:
AMBEL (Ragweed, Common) = experiment: Preemergence herbicidal evaluation; type: in vivo, Ambrosia artemisifolia; conditions: rated 4-5 weeks after treatment
Procedure, shortened: (§1)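 Preemergence soil application of compound, sprayed in aqueous acetone at rates equivalent to about 0.0156 to 0.500 kg per hectare onto freshly sown cups. Plant response was judged by eye on a 0-9 scale four to five weeks later.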

ORYSAT (Rice, Tebonnet) [1] = experiment: Preemergence herbicidal evaluation; type: in vivo, Oryza sativa, (L.) Tebonnet; conditions: rated 4-5 weeks after treatment
Procedure, shortened: as §1

ORYSAT (Rice, Tebonnet) [2] = experiment: Postemergence herbicidal evaluation; type: in vivo, Oryza sativa, (L.) Tebonnet; conditions: for herbicidal rating ORYSAT: postemergence
Procedure, shortened: (§2)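 Each compound, dispersed in an acetone/water mix (50/50) carrying 0.5% TWEEN 20, is nozzle-sprayed at 40 psi on approximately two-week-old seedlings at about 0.0156–0.500 kg/ha. Plants are assessed 4–5 weeks afterward on a 0–9 scale relative to control; duplicate tests are averaged.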

[3] = test system: CHEAL (Lambsquarters, Common); experiment: Postemergence herbicidal evaluation; type: in vivo, Chenopodium album; conditions: for herbicidal rating CHEAL: postemergence
Procedure, shortened: as §2

[4] = test system: GLXMAW (Soybean, Williams); experiment: Preemergence herbicidal evaluation; type: in vivo, Glycine max, (L.) Merr. cv Williams; conditions: rated 4-5 weeks after treatment
Procedure, shortened: as §1

ZEAMX (Corn, Field) = experiment: Postemergence herbicidal evaluation; type: in vivo, Zea mays; conditions: for herbicidal rating ZEAMX: postemergence
Procedure, shortened: as §2

SETVI (Foxtail, Green) = experiment: Preemergence herbicidal evaluation; type: in vivo, Setaria viridis; conditions: rated 4-5 weeks after treatment
Procedure, shortened: as §1

MOOVA (Monochoria) = experiment: Preemergence weed control under flooded paddy conditions; type: in vivo, Monochoria vaginalis; conditions: rated 3-4 weeks after treatment
Procedure, shortened: (§3)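 Silt loam, seeds in top 0.5 cm; flood held 1.5-3 cm; test cpd as acetone/water 50/50 into flood water, ~0.0313-0.500 kg/ha a.i.; greenhouse 3-4 wk; visual 0-9 score vs control.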

CYPSE (Flatsedge) = experiment: as above; type: in vivo, Cyperus serotinus; conditions: rated 3-4 weeks after treatment
Procedure, shortened: as §3

CASOB (Sicklepod) = experiment: Postemergence herbicidal evaluation; type: in vivo, Cassia obtusifolia; conditions: for herbicidal rating CASOB: postemergence
Procedure, shortened: as §2

GALAP (Galium) = experiment: Postemergence herbicidal evaluation; type: in vivo, Galium aparine; conditions: for herbicidal rating GALAP: postemergence
Procedure, shortened: as §2

C#CC(C)N1C(=O)CSC1=Nc1cc(-n2c(=O)cc(C(F)(F)F)n(C)c2=O)c(F)cc1Cl (stereo not shown) [Compound 165, 3-{4-Chloro-2-fluoro-5-{[3-(1-methyl-2-propynyl)-4-oxo-2-thiazolidinylidene]amino}phenyl}-1-methyl-6-(trifluoromethyl)-2,4(1H,3H)-pyrimidinedione]
5.5: herbicidal rating ZEAMX (ZEAMX (Corn, Field); rate 0.1250 kg/ha)
6.0: herbicidal rating CHEAL ([3]; rate 0.0313 kg/ha) | Preemergence herbicidal rating GLXMAW ([4]; 0.5000 kg/ha) | Preemergence herbicidal rating SETVI (SETVI (Foxtail, Green); 0.0313 kg/ha) | Preemergence herbicidal rating SETVI (SETVI (Foxtail, Green); 0.0625 kg/ha)
3.0: Preemergence herbicidal rating ORYSAT (ORYSAT (Rice, Tebonnet) [1]; 0.2500 kg/ha) | herbicidal rating ORYSAT (ORYSAT (Rice, Tebonnet) [2]; rate 0.0625 kg/ha) | herbicidal effect rating, CYPSE (CYPSE (Flatsedge); 0.2500 kg/ha) | herbicidal rating CASOB (CASOB (Sicklepod); rate 0.0625 kg/ha) | herbicidal rating CASOB (CASOB (Sicklepod); rate 0.1250 kg/ha)
1.5: herbicidal rating ORYSAT (ORYSAT (Rice, Tebonnet) [2]; rate 0.0313 kg/ha)
5.0: Preemergence herbicidal rating ORYSAT (ORYSAT (Rice, Tebonnet) [1]; 0.5000 kg/ha) | herbicidal rating CHEAL ([3]; rate 0.0156 kg/ha) | Preemergence herbicidal rating GLXMAW ([4]; 0.2500 kg/ha) | herbicidal rating ZEAMX (ZEAMX (Corn, Field); rate 0.0313 kg/ha) | herbicidal rating ZEAMX (ZEAMX (Corn, Field); rate 0.0625 kg/ha) | herbicidal rating GALAP (GALAP (Galium); rate 0.1250 kg/ha)
7.0: Preemergence herbicidal rating AMBEL (AMBEL (Ragweed, Common); 0.1250 kg/ha) | Preemergence herbicidal rating AMBEL (AMBEL (Ragweed, Common); 0.2500 kg/ha) | herbicidal rating CHEAL ([3]; rate 0.0625 kg/ha)
1.0: Preemergence herbicidal rating AMBEL (AMBEL (Ragweed, Common); 0.0313 kg/ha) | Preemergence herbicidal rating ORYSAT (ORYSAT (Rice, Tebonnet) [1]; 0.1250 kg/ha) | herbicidal rating GALAP (GALAP (Galium); rate 0.0313 kg/ha)
9.0: Preemergence herbicidal rating AMBEL (AMBEL (Ragweed, Common); 0.5000 kg/ha) | herbicidal rating CHEAL ([3]; rate 0.1250 kg/ha) | Preemergence herbicidal rating SETVI (SETVI (Foxtail, Green); 0.1250 kg/ha) | Preemergence herbicidal rating SETVI (SETVI (Foxtail, Green); 0.2500 kg/ha) | Preemergence herbicidal rating SETVI (SETVI (Foxtail, Green); 0.5000 kg/ha) | herbicidal effect rating, MOOVA (MOOVA (Monochoria); 0.0313 kg/ha) | herbicidal effect rating, MOOVA (MOOVA (Monochoria); 0.0625 kg/ha) | herbicidal effect rating, MOOVA (MOOVA (Monochoria); 0.1250 kg/ha) | herbicidal effect rating, MOOVA (MOOVA (Monochoria); 0.2500 kg/ha)
2.0: herbicidal rating ORYSAT (ORYSAT (Rice, Tebonnet) [2]; rate 0.0156 kg/ha) | herbicidal rating CASOB (CASOB (Sicklepod); rate 0.0313 kg/ha)
0.0: Preemergence herbicidal rating AMBEL (AMBEL (Ragweed, Common); 0.0156 kg/ha) | Preemergence herbicidal rating AMBEL (AMBEL (Ragweed, Common); 0.0625 kg/ha) | Preemergence herbicidal rating ORYSAT (ORYSAT (Rice, Tebonnet) [1]; 0.0156 kg/ha) | Preemergence herbicidal rating ORYSAT (ORYSAT (Rice, Tebonnet) [1]; 0.0313 kg/ha) | Preemergence herbicidal rating ORYSAT (ORYSAT (Rice, Tebonnet) [1]; 0.0625 kg/ha) | Preemergence herbicidal rating GLXMAW ([4]; 0.0156 kg/ha) | Preemergence herbicidal rating GLXMAW ([4]; 0.0313 kg/ha) | Preemergence herbicidal rating SETVI (SETVI (Foxtail, Green); 0.0156 kg/ha) | herbicidal effect rating, CYPSE (CYPSE (Flatsedge); 0.0313 kg/ha) | herbicidal effect rating, CYPSE (CYPSE (Flatsedge); 0.1250 kg/ha) | herbicidal rating CASOB (CASOB (Sicklepod); rate 0.0156 kg/ha) | herbicidal rating GALAP (GALAP (Galium); rate 0.0156 kg/ha)
4: herbicidal rating ZEAMX (ZEAMX (Corn, Field); rate 0.0156 kg/ha)
4.0: herbicidal rating ORYSAT (ORYSAT (Rice, Tebonnet) [2]; rate 0.1250 kg/ha) | Preemergence herbicidal rating GLXMAW ([4]; 0.0625 kg/ha) | Preemergence herbicidal rating GLXMAW ([4]; 0.1250 kg/ha) | herbicidal rating GALAP (GALAP (Galium); rate 0.0625 kg/ha)

CCCN1C(=O)CSC1=Nc1cc(-n2c(=O)cc(C(F)(F)F)n(C)c2=O)c(F)cc1Cl [Compound 171, 3-{4-Chloro-2-fluoro-5-[(4-oxo-3-propyl-2-thiazolidinylidene)amino]phenyl}-1-methyl-6-(trifluoromethyl)-2,4 (1H, 3H)-pyrimidinedione]
6.5: Postemergence herbicidal rating ZEAMX (ZEAMX (Corn, Field); Rate 0.0313 kg/ha)
3.0: Preemergence herbicidal rating AMBEL (AMBEL (Ragweed, Common); 0.0156 kg/ha) | Postemergence herbicidal rating CASOB (CASOB (Sicklepod); Rate 0.0313 kg/ha) | Postemergence herbicidal rating GALAP (GALAP (Galium); Rate 0.0156 kg/ha)
3.5: Postemergence herbicidal rating ORYSAT (ORYSAT (Rice, Tebonnet) [2]; Rate 0.0156 kg/ha)
1.0: Preemergence herbicidal rating GLXMAW ([4]; 0.0156 kg/ha)
5.0: Preemergence herbicidal rating ORYSAT (ORYSAT (Rice, Tebonnet) [1]; 0.0625 kg/ha) | herbicidal rating ORYSAT (ORYSAT (Rice, Tebonnet) [2]; rate 0.0625 kg/ha) | Postemergence herbicidal rating ZEAMX (ZEAMX (Corn, Field); Rate 0.0156 kg/ha)
2.0: Preemergence herbicidal rating ORYSAT (ORYSAT (Rice, Tebonnet) [1]; 0.0156 kg/ha) | Preemergence herbicidal rating GLXMAW ([4]; 0.0313 kg/ha) | Postemergence herbicidal rating CASOB (CASOB (Sicklepod); Rate 0.0156 kg/ha)
4.0: Preemergence herbicidal rating AMBEL (AMBEL (Ragweed, Common); 0.0313 kg/ha) | Preemergence herbicidal rating ORYSAT (ORYSAT (Rice, Tebonnet) [1]; 0.0313 kg/ha) | Postemergence herbicidal rating ORYSAT (ORYSAT (Rice, Tebonnet) [2]; Rate 0.0313 kg/ha) | herbicidal rating CASOB (CASOB (Sicklepod); rate 0.0625 kg/ha)
8.0: Preemergence herbicidal rating ORYSAT (ORYSAT (Rice, Tebonnet) [1]; 0.2500 kg/ha) | Preemergence herbicidal rating GLXMAW ([4]; 0.2500 kg/ha)
6.0: Preemergence herbicidal rating ORYSAT (ORYSAT (Rice, Tebonnet) [1]; 0.1250 kg/ha) | Preemergence herbicidal rating GLXMAW ([4]; 0.0625 kg/ha) | Postemergence herbicidal rating GALAP (GALAP (Galium); Rate 0.0313 kg/ha)
9.0: Preemergence herbicidal rating AMBEL (AMBEL (Ragweed, Common); 0.0625 kg/ha) | Preemergence herbicidal rating AMBEL (AMBEL (Ragweed, Common); 0.1250 kg/ha) | Preemergence herbicidal rating AMBEL (AMBEL (Ragweed, Common); 0.2500 kg/ha) | Postemergence herbicidal rating CHEAL ([3]; Rate 0.0313 kg/ha) | herbicidal rating CHEAL ([3]; rate 0.0625 kg/ha) | Preemergence herbicidal rating SETVI (SETVI (Foxtail, Green); 0.0313 kg/ha) | Preemergence herbicidal rating SETVI (SETVI (Foxtail, Green); 0.0625 kg/ha) | Preemergence herbicidal rating SETVI (SETVI (Foxtail, Green); 0.1250 kg/ha) | Preemergence herbicidal rating SETVI (SETVI (Foxtail, Green); 0.2500 kg/ha) | herbicidal effect rating, MOOVA (MOOVA (Monochoria); 0.0313 kg/ha) | herbicidal effect rating, MOOVA (MOOVA (Monochoria); 0.0625 kg/ha) | herbicidal effect rating, MOOVA (MOOVA (Monochoria); 0.1250 kg/ha) | herbicidal effect rating, MOOVA (MOOVA (Monochoria); 0.2500 kg/ha) | herbicidal effect rating, CYPSE (CYPSE (Flatsedge); 0.0313 kg/ha) | herbicidal effect rating, CYPSE (CYPSE (Flatsedge); 0.0625 kg/ha) | herbicidal effect rating, CYPSE (CYPSE (Flatsedge); 0.1250 kg/ha) | herbicidal effect rating, CYPSE (CYPSE (Flatsedge); 0.2500 kg/ha)
7.0: Postemergence herbicidal rating CHEAL ([3]; Rate 0.0156 kg/ha) | Preemergence herbicidal rating GLXMAW ([4]; 0.1250 kg/ha) | herbicidal rating ZEAMX (ZEAMX (Corn, Field); rate 0.0625 kg/ha) | Preemergence herbicidal rating SETVI (SETVI (Foxtail, Green); 0.0156 kg/ha) | herbicidal rating GALAP (GALAP (Galium); rate 0.0625 kg/ha)
